Experimental findings from patent US10954287B2, “Ras binding peptides and methods of use” (Ra Pharmaceuticals, Inc., priority 2016, dated 2021) are described below.

*1 amine or outer side, *2 acyl side, *3 side chain or, on linkers, in order; H or OH if unused. Bridges are numbered along the chain shown (N, C = ends). [ ]: non-standard residue; d: D form. ADTZPA = (S)-2-amino-3-(1-dodecyl-1H-1,2,3-triazol-4-yl)propanoic acid; m‑xylylene = m-xylylene thioether bridge between Cys; Trp(7-aza) = N[C@@H](Cc1c[nH]c2ncccc12)C(=O)O; NMePhe(4-F) = CN[C@@H](Cc1ccc(F)cc1)C(=O)O; Alexa Fluor 594 = N-terminal label (ALF); mXylylene = c1cc(C[*:1])cc(C[*:2])c1; PEG4 = NCCOCCOCCOCCOCCC(=O)O; Phg = N[C@H](C(=O)O)c1ccccc1; Tle = CC(C)(C)[C@H](N)C(=O)O; NMeA = CN[C@@H](C)C(=O)O; Nva = CCC[C@H](N)C(=O)O; Sar = CNCC(=O)O

The test relates to GMPPNP-loaded H-Ras or GTP-loaded K-Ras. Kind of test: Fluorescence polarization competition assay with TAMRA-labeled probe R4007. The format is binding, human. Particulars: 120 nM Ras, 30 nM probe R4007, 60 minutes at room temperature; read-out: Probe displacement (nM IC50). In outline: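 120 nM GMPPNP-loaded H-Ras or GTP-loaded K-Ras was preincubated with 30 nM TAMRA-labeled R4007 probe for 20 min at room temperature in Tris pH 7.5 buffer with MgCl2, EDTA and Triton X-100. Serially diluted competitor was then added for 60 min. Polarization was read at 535/595 nm, with Ki from a one-site Ki fit and IC50 from probe displacement.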
For orientation: Fluorescence polarisation rises when a labelled molecule tumbles more slowly, as on binding a larger partner.
For the compound `C=CC(=O)NCCC[C@@H]1NC(=O)[C@H](C)NC(=O)[C@H](C(C)(C)C)NC(=O)[C@H](Cc2ccc(O)cc2)NC(=O)[C@@H](NC(=O)[C@H](CCC)NC(C)=O)CSCc2cccc(c2)CSC[C@@H](C(N)=O)NC(=O)CN(C)C(=O)[C@H](Cc2ccc(F)cc2)N(C)C(=O)[C@H](Cc2ccc(O)cc2)NC(=O)[C@H](Cc2c[nH]c3ncccc23)NC(=O)[C@H](c2ccccc2)NC(=O)[C@H](C)N(C)C1=O` (relative stereo) [Compound R4122, ACE-NVA-CYS*-TYR-TBG-ALA-ORAC-NMA-PHG-7AW-TYR-MFF-SAR-CYS*-NH2], the IC50 (as a rule, the concentration at which inhibition is half-maximal) is 77.1 nM.

On to `CCC[C@H](NC(C)=O)C(=O)N[C@H]1CSCc2cccc(c2)CSC[C@@H](C(N)=O)NC(=O)[C@H](C)N(C)C(=O)[C@H](Cc2ccc(F)cc2)N(C)C(=O)[C@H](Cc2ccc(O)cc2)NC(=O)[C@H](Cc2c[nH]c3ncccc23)NC(=O)[C@H](c2ccccc2)NC(=O)[C@H](C)N(C)C(=O)[C@H](Cc2c[nH]cn2)NC(=O)[C@H](CCCCN)NC(=O)[C@H](C(C)(C)C)NC(=O)[C@H](Cc2ccc(O)cc2)NC1=O` (relative stereo) [Compound R4101, ACE-NVA-CYS*-TYR-TBG-LYS-HIS-NMA-PHG-7AW-TYR-MFF-NMA-CYS*-NH2], for which the IC50 was 1.45 nM.

For the compound `CCC[C@H](N)C(=O)N[C@H]1CSCc2cccc(c2)CSC[C@@H](C(N)=O)NC(=O)CN(C)C(=O)[C@H](Cc2ccc(F)cc2)N(C)C(=O)[C@H](Cc2ccc(O)cc2)NC(=O)[C@H](Cc2c[nH]c3ncccc23)NC(=O)[C@H](c2ccccc2)NC(=O)[C@H](C)N(C)C(=O)[C@H](Cc2cnc[nH]2)NC(=O)[C@H](CCCCN)NC(=O)[C@H](C(C)(C)C)NC(=O)[C@H](Cc2ccc(O)cc2)NC1=O` (relative stereo) [Compound R4002, NVA-CYS*-TYR-TBG-LYS-HIS-NMA-PHG-7AW-TYR-MFF-SAR-CYS*-NH2], the IC50 worked out at 7.92 nM.

On to `CCC[C@H](N)C(=O)N[C@H]1CSCc2cccc(c2)CSC[C@@H](C(=O)N[C@H](CO)C(=O)N[C@@H](CCCCN)C(=O)NCC(=O)N[C@@H](CSSC(C)(C)C)C(=O)N[C@H](C(=O)N[C@H](C(=O)N[C@@H](CCSC)C(=O)O)[C@@H](C)CC)C(C)C)NC(=O)CN(C)C(=O)[C@H](Cc2ccc(F)cc2)N(C)C(=O)[C@H](Cc2ccc(O)cc2)NC(=O)[C@H](Cc2c[nH]c3ncccc23)NC(=O)[C@H](c2ccccc2)NC(=O)[C@H](C)N(C)C(=O)[C@H](Cc2c[nH]cn2)NC(=O)[C@H](CCCCN)NC(=O)[C@H](C(C)(C)C)NC(=O)[C@H](Cc2ccc(O)cc2)NC1=O` (relative stereo) [Compound R4113, NVA-CYS*-TYR-TBG-LYS-HIS-NMA-PHG-7AW-TYR-MFF-SAR-CYS*-DSER-LYS-GLY-TDSPA-VAL-ILE-MET], for which the IC50 was 32.7 nM.

In the case of `CCC[C@H](NC(C)=O)C(=O)N[C@H]1CSCc2cccc(c2)CSC[C@@H](C(=O)NCC(=O)NCC(=O)NCC(=O)N[C@@H](CS)C(=O)N[C@H](C(=O)N[C@H](C(=O)N[C@@H](CCSC)C(N)=O)[C@@H](C)CC)C(C)C)NC(=O)CN(C)C(=O)[C@H](Cc2ccc(F)cc2)N(C)C(=O)[C@H](Cc2ccc(O)cc2)NC(=O)[C@H](Cc2c[nH]c3ncccc23)NC(=O)[C@H](c2ccccc2)NC(=O)[C@H](C)N(C)C(=O)[C@H](Cc2c[nH]cn2)NC(=O)[C@H](CCCCN)NC(=O)[C@H](C(C)(C)C)NC(=O)[C@H](Cc2ccc(O)cc2)NC1=O` (relative stereo) [Compound R4127, ACE-NVA-CYS*-TYR-TBG-LYS-HIS-NMA-PHG-7AW-TYR-MFF-SAR-CYS*-GLY-GLY-GLY-CYS-VAL-ILE-MET-NH2], the IC50 turned out to be 148 nM.

Consider `CCC[C@H](NC(C)=O)C(=O)N[C@H]1CSCc2cccc(c2)CSC[C@@H](C(=O)N[C@H](CO)C(=O)N[C@H](C)C(=O)NCC(=O)N[C@@H](CS)C(=O)N[C@H](C(=O)N[C@H](C(=O)N[C@@H](CCSC)C(=O)O)[C@@H](C)CC)C(C)C)NC(=O)CN(C)C(=O)[C@H](Cc2ccc(F)cc2)N(C)C(=O)[C@H](Cc2ccc(O)cc2)NC(=O)[C@H](Cc2c[nH]c3ncccc23)NC(=O)[C@H](c2ccccc2)NC(=O)[C@H](C)N(C)C(=O)[C@H](Cc2c[nH]cn2)NC(=O)[C@H](CCCCN)NC(=O)[C@H](C(C)(C)C)NC(=O)[C@H](Cc2ccc(O)cc2)NC1=O` (relative stereo) [Compound R4102, ACE-NVA-CYS*-TYR-TBG-LYS-HIS-NMA-PHG-7AW-TYR-MFF-SAR-CYS*-DSER-DALA-GLY-CYS-VAL-ILE-MET], for which the IC50 was 1.82 nM.

In the case of “ACE-NVA-CYS*-TYR-TBG-LYS-HIS-NMA-PHG-7AW-TYR-MFF-SAR-CYS*-PEG4PA-ADTZPA-NH2 (Ac-[Nva]CY[Tle]KH[NMeA][Phg][Trp(7-aza)]Y[NMePhe(4-F)][Sar]C-{PEG4-ADTZPA-NH2}; linker 2-13 via m‑xylylene) [Compound R4147, cyclized by a m-xylylene thioether bridge]”, the IC50 was 5190 nM.

With `CCC[C@H](N)C(=O)N[C@H]1CSCc2cccc(c2)CSC[C@@H](C(=O)N[C@H](CO)C(=O)N[C@@H](CCCCN)C(=O)NCC(=O)N[C@@H](CS)C(=O)N[C@H](C(=O)N[C@H](C(=O)N[C@@H](CCSC)C(=O)O)[C@@H](C)CC)C(C)C)NC(=O)CN(C)C(=O)[C@H](Cc2ccc(F)cc2)N(C)C(=O)[C@H](Cc2ccc(O)cc2)NC(=O)[C@H](Cc2c[nH]c3ncccc23)NC(=O)[C@H](c2ccccc2)NC(=O)[C@H](C)N(C)C(=O)[C@H](Cc2c[nH]cn2)NC(=O)[C@H](CCCCN)NC(=O)[C@H](C(C)(C)C)NC(=O)[C@H](Cc2ccc(O)cc2)NC1=O` (relative stereo) [Compound R4114, NVA-CYS*-TYR-TBG-LYS-HIS-NMA-PHG-7AW-TYR-MFF-SAR-CYS*-DSER-LYS-GLY-CYS-VAL-ILE-MET], the IC50 is 32.7 nM.

Turning to `CCC[C@H](NC(=O)CCCC(=O)O)C(=O)N[C@H]1CSCc2cccc(c2)CSC[C@@H](C(N)=O)NC(=O)CN(C)C(=O)[C@H](Cc2ccc(F)cc2)N(C)C(=O)[C@H](Cc2ccc(O)cc2)NC(=O)[C@H](Cc2c[nH]c3ncccc23)NC(=O)[C@H](c2ccccc2)NC(=O)[C@H](C)N(C)C(=O)[C@H](Cc2c[nH]cn2)NC(=O)[C@H](CCCCN)NC(=O)[C@H](C(C)(C)C)NC(=O)[C@H](Cc2ccc(O)cc2)NC1=O` (relative stereo) [Compound R4103, GLA-NVA-CYS*-TYR-TBG-LYS-HIS-NMA-PHG-7AW-TYR-MFF-SAR-CYS*-NH2], the IC50 was 2 nM.

As to `CCC[C@H](NC(C)=O)C(=O)N[C@H]1CSCc2cccc(c2)CSC[C@@H](C(=O)O)NC(=O)CN(C)C(=O)[C@H](Cc2ccc(F)cc2)N(C)C(=O)[C@H](Cc2ccc(O)cc2)NC(=O)[C@H](Cc2c[nH]c3ncccc23)NC(=O)[C@H](c2ccccc2)NC(=O)[C@H](C)N(C)C(=O)[C@H](Cc2c[nH]cn2)NC(=O)[C@H](CCCCN)NC(=O)[C@H](C(C)(C)C)NC(=O)[C@H](Cc2ccc(O)cc2)NC1=O` (relative stereo) [Compound R4108, ACE-NVA-CYS*-TYR-TBG-LYS-HIS-NMA-PHG-7AW-TYR-MFF-SAR-CYS*], the IC50 came to 9.45 nM.

As for `C#CC[C@H](NC(=O)CCOCCOCCOCCOCCNC(=O)[C@@H]1CSCc2cccc(c2)CSC[C@H](NC(=O)[C@H](CCC)NC(C)=O)C(=O)N[C@@H](Cc2ccc(O)cc2)C(=O)N[C@@H](C(C)(C)C)C(=O)N[C@@H](CCCCN)C(=O)N[C@@H](Cc2c[nH]cn2)C(=O)N(C)[C@@H](C)C(=O)N[C@@H](c2ccccc2)C(=O)N[C@@H](Cc2c[nH]c3ncccc23)C(=O)N[C@@H](Cc2ccc(O)cc2)C(=O)N(C)[C@@H](Cc2ccc(F)cc2)C(=O)N(C)CC(=O)N1)C(N)=O` (relative stereo) [Compound R4107, ACE-NVA-CYS*-TYR-TBG-LYS-HIS-NMA-PHG-7AW-TYR-MFF-SAR-CYS*-PEG4PA-PRG-NH2], the IC50 was found to be 9.42 nM.

Turning to “ALF-NVA-CYS*-TYR-NVA-PHG-MFF-THR-PRO-7AW-CYS*-7AW-GLU-GLU-NH2 ({Alexa Fluor 594}-[Nva]CY[Nva][Phg][NMePhe(4-F)]TP[Trp(7-aza)]C[Trp(7-aza)]EE-NH2; linker 2-10 via mXylylene) [Compound R4154, cyclized by a m-xylylene thioether bridge]”, the IC50 is 37400 nM.

Turning to `CCC[C@H](NC(C)=O)C(=O)N[C@H]1CSCc2cccc(c2)CSC[C@@H](C(=O)N[C@H](CO)C(=O)N[C@H](C)C(=O)N[C@@H](CCCCN)C(=O)N[C@@H](CSSC(C)(C)C)C(=O)N[C@H](C(=O)N[C@H](C(=O)N[C@@H](CCSC)C(=O)O)[C@@H](C)CC)C(C)C)NC(=O)CN(C)C(=O)[C@H](Cc2ccc(F)cc2)N(C)C(=O)[C@H](Cc2ccc(O)cc2)NC(=O)[C@H](Cc2c[nH]c3ncccc23)NC(=O)[C@H](c2ccccc2)NC(=O)[C@H](C)N(C)C(=O)[C@H](Cc2c[nH]cn2)NC(=O)[C@H](CCCCN)NC(=O)[C@H](C(C)(C)C)NC(=O)[C@H](Cc2ccc(O)cc2)NC1=O` (relative stereo) [Compound R4111, ACE-NVA-CYS*-TYR-TBG-LYS-HIS-NMA-PHG-7AW-TYR-MFF-SAR-CYS*-DSER-DALA-LYS-TDSPA-VAL-ILE-MET], the IC50 was 20.8 nM.

Regarding `C=CC(=O)NCCCC[C@H]1C(=O)N[C@@H](c2ccccc2)C(=O)N[C@@H](Cc2c[nH]c3ncccc23)C(=O)N[C@@H](Cc2ccc(O)cc2)C(=O)N(C)[C@@H](Cc2ccc(F)cc2)C(=O)N(C)CC(=O)N[C@H](C(N)=O)CSCc2cccc(c2)CSC[C@H](NC(=O)[C@H](CCC)NC(C)=O)C(=O)N[C@@H](Cc2ccc(O)cc2)C(=O)N[C@@H](C(C)(C)C)C(=O)N[C@@H](C)C(=O)N[C@@H](Cc2c[nH]cn2)C(=O)N1C` (relative stereo) [Compound R4133, ACE-NVA-CYS*-TYR-TBG-ALA-HIS-MKAC-PHG-7AW-TYR-MFF-SAR-CYS*-NH2], the IC50 amounted to 342 nM.

On to `CCC[C@H](NC(C)=O)C(=O)N[C@H]1CSCc2cccc(c2)CSC[C@@H](C(N)=O)NC(=O)CN(C)C(=O)[C@H](Cc2ccc(F)cc2)N(C)C(=O)[C@H](Cc2ccc(O)cc2)NC(=O)[C@H](Cc2c[nH]c3ncccc23)NC(=O)[C@H](c2ccccc2)NC(=O)[C@H](C)N(C)C(=O)[C@H]2CCCN2C(=O)[C@H](CCCCN)NC(=O)[C@H](C(C)(C)C)NC(=O)[C@H](Cc2ccc(O)cc2)NC1=O` (relative stereo) [Compound R4144, ACE-NVA-CYS*-TYR-TBG-LYS-DPRO-NMA-PHG-7AW-TYR-MFF-SAR-CYS*-NH2], for which the IC50 came to 1960 nM.
